Results from patent publication US20160166531A1, “METHODS AND COMPOSITIONS FOR TREATING CARDIOVASCULAR DISORDERS” (Zafgen, Inc., priority 2010, published 2016).
Several values for one entry are separate records, joined by “and”; a condition that tells them apart may be missing. Equal entries are not always repeated.

What was measured:
[1] = system: total cholesterol; experiment: Total cholesterol in rats after four weeks of treatment; format: in vivo; set-up: Total cholesterol levels, Mean: unit not given here; details: for Total cholesterol levels, Mean: vehicle mean 86.7
Description: Rats were administered 1 or 3 mg/kg fumagillol daily for a total of four weeks of treatment.

[2] = system: total cholesterol; experiment: Total cholesterol in human subjects with elevated total cholesterol; format: in vivo; details: human subjects with initial fasting total cholesterol in excess of 180 mg/dl, twice weekly for four weeks, n=10, p=0.018 (FIG. 3)
Description: Human subjects with initial fasting total cholesterol levels in excess of 180 mg/dl were administered Compound A twice weekly for a total of four weeks of treatment.

[3] = system: FGF-21; experiment: R&D Systems Quantikine Mouse FGF-21 Immunoassay, plasma FGF-21 after ten days of treatment; format: in vivo
From the text: In Table 1, animals #1.1, 1.2, 1.3, 2.1, 2.2 and 2.3 were vehicle-treated and animal #3.1, 3.2, 3.3, 4.1, 4.2 and 4.3 were ZGN-201-treated. Sample 3.1 was above the level of quantification.
FIG. 4 indicates the average (±SEM) plasma FGF-21 levels for all study groups.

[4] = system: C57BL/6 mice conditioned on a high fat diet; experiment: Oral fumagillin in mice conditioned on a high fat diet (DIO); format: in vivo
From the text: Oral administration of the MetAP2 inhibitor fumagillin causes an increase in circulating ketone bodies, as measured by concentration of beta hydroxybutyrate, which indicates an increase in the breakdown of stored fat and activation of ketogenesis.

[5] = system: PCSK9; experiment: Liver mRNA levels of PCSK9 in treated mice; format: in vivo; details: C57BL/6 mice, at day 3 and after (FIG. 5)
From the text: Liver mRNA levels of PCSK9 were examined in C57BL/6 mice treated with ZGN-201. FIG. 5 depicts the hepatic PCSK9 mRNA (% of vehicle control) vs. days of treatment with ZGN-201.

[6] = system: C-Reactive Protein (CRP); experiment: Serum C-Reactive Protein in obese patients, intravenous twice weekly for 26 days; format: in vivo, human
Description: (§1) The compound was intravenously administered to each patient of a cohort (except for a placebo cohort) twice weekly for 26 days. Each of patients in the three non-placebo cohorts received either 0.1 mg/m^2 (cohort 1); 0.3 mg/m^2 (cohort 2); or 0.9 mg/m^2 (cohort 3) doses of the compound at the time of administration. The trial was conducted under the appropriate government and medical supervision.

[7] = system: thrombomodulin; experiment: Thrombomodulin levels in obese patients; format: in vivo, human; details: obese patients of Example 6 (FIG. 7)
From the text: The expression of another cardiovascular risk marker, thrombomodulin, was examined in the patients described in Example 6. […] Similarly to Example 6, the reduction in thrombomodulin was independent of effects on metabolic parameters and body weight.

[8] = system: low density lipoprotein cholesterol (LDLc); details: obese patients of Example 6 (FIG. 8)
Description: as §1

[9] = system: apolipoprotein(a) (apoLp(a)); experiment: Apolipoprotein(a) levels in obese patients; format: in vivo, human; details: obese patients of Example 6 (FIG. 9)
From the text: The expression of another cardiovascular risk marker, apolipoprotein(a) (apoLp(a)), was examined in the patients described in Example 6. […] Similarly to Example 6, the reduction in apoLp(a) was independent of effects on body weight.

[10] = 1 mg/kg po daily for four weeks
[11] = 3 mg/kg po daily for four weeks

Q: For `CO[C@@H]1[C@H](O)CC[C@]2(CO2)[C@H]1[C@@]1(C)O[C@@H]1CC=C(C)C` [Fumagillol, fumagillol], which “Total cholesterol levels, % of vehicle” value [1, 10] is on record?
A: Its value is 76.5%.

Q: What about the “Total cholesterol levels, Mean” value [1, 10] of the same compound?
A: The value was 66.3.

Q: What about the “Total cholesterol levels, % of vehicle” value [1, 11] of the same compound?
A: Its value is 63.7%.

Q: And the “Total cholesterol levels, Mean” value [1, 11]?
A: Its value is 55.2.

Q: Which Total cholesterol levels [2] does the source give for `CO[C@@H]1[C@H](OC(=O)C=Cc2ccc(OCCN(C)C)cc2)CC[C@]2(CO2)[C@H]1[C@@]1(C)O[C@@H]1CC=C(C)C` [Compound A, O-(4-dimethylaminoethoxycinnamoyl)fumagillol] here?
A: The Total cholesterol levels was “reduced”.

Q: For `CO[C@@H]1[C@H](OC(=O)/C=C/C=C/C=C/C=C/C(=O)O)CC[C@]2(CO2)[C@H]1[C@@]1(C)O[C@@H]1CC=C(C)C` [fumagillin], which “FGF-21 absolute numbers, Average of duplicates (single animals)” value ([3]; animals 3.1 to 4.3, one value per animal, listed as ZGN-201) is on record?
A: The value was “AQL and 2248.25 pg/ml and 2514.66 pg/ml and 2166.60 pg/ml and 1194.64 pg/ml and 3597.58 pg/ml”.

Q: What about the “FGF-21 MEAN of treated group” value ([3]; vehicle group mean 991.47) of the same compound?
A: The value was 2344.34 pg/mL.

Q: And the “hydroxybutyrate concentration at longer time points” value ([4]; DIO C57BL/6 mice, diet admixture 1 mg/kg daily for 250 days (FIG. 1C))?
A: The value was “Increased hydroxybutyrate concentration persisted”.

Q: And the beta hydroxybutyrate concentrations ([4]; DIO C57BL/6 mice, oral gavage 0.3 or 3 mg/kg daily for 10 days (FIG. 1A))?
A: The beta hydroxybutyrate concentrations was “increase”.

Q: And the “free fatty acid concentration” value ([4]; DIO C57BL/6 mice, oral gavage 0.3 or 3 mg/kg daily for 10 days (FIG. 1B))?
A: The value was “without an increase”.

Q: And the sensitivity to insulin ([4]; mice on a high fat diet)?
A: The sensitivity to insulin was “normalizes”.

Q: What about the “Fasted glucose and insulin levels, insulin-glucose product” value ([4]; mice on high fat diet, 1 mg/kg fumagillin, versus age-matched lean mice and untreated DIO mice (FIG. 2A-2C)) of the same compound?
A: Its value is “more similar to that of age-matched lean mice than that of untreated mice on a high fat diet”.

Q: What about the “hepatic PCSK9 mRNA (% of vehicle control)” value [5] of the same compound?
A: The value was “reduced PCSK9 expression”.

Q: How did the “subjects with elevated CRP concentrations (above 3.0 μg/ml) reduced to levels within the normal range” value ([6]; 0.9 mg/m^2 dose level, by the 26th day of treatment, p<0.01) turn out when `CO[C@@H]1[C@H](OC(=O)C=Cc2ccc(OCCN(C)C)cc2)CC[C@]2(CO2)[C@H]1[C@@]1(C)O[C@@H]1CC=C(C)C.O=C(O)C(=O)O` [6-O-(4-dimethylaminoethoxyl)cinnamoyl fumagillol oxalate] was run?
A: The value was “six out of eight”.

Q: And the “levels of C-Reactive Protein (CRP) in patients' serum” value ([6]; obese patients, iv twice weekly for 26 days, 0.1, 0.3 or 0.9 mg/m^2 (FIG. 6))?
A: Its value is “decrease”.

Q: What about the thrombomodulin levels [7] of the same compound?
A: Its thrombomodulin levels is “decreases”.

Q: What about the LDL-c levels [8] of the same compound?
A: The LDL-c levels was “decreases”.

Q: What about the “apoLp(a) levels” value [9] of the same compound?
A: The value was “decreases”.
